In patent US12209085B2, “RET inhibitors, pharmaceutical compositions and uses thereof” (SUNSHINE LAKE PHARMA CO., LTD., priority 2018, dated 2025):

Assays:
Ret wt = Ret wt (Homo sapiens (Human), UniProt P07949); assay: HTRF kinase inhibition assay, Ret wt; type: biochemical; details: HTRF method
Description: (§1) • 1. […] 1) • 18) Echo (Labcyte, 550) • 3.
(§2) [formula] • Ratiopositive control: average of CEP-32496 readings in all positive control wells • Rationegative control: average of DMSO readings in all negative control wells • Wherein, the chemical name of CEP-32496 is: N-[3-[(6,7-dimethoxy-4-quinazolinyl)oxy]phenyl]-N′-[5-(2,2,2-trifluoro-1,1-dimethylethyl)-3-isoxazolyl]urea. • 4.3 Calculation of the IC50 and Drawing of the inhibition curve of the compound: • The IC50 (half inhibitory concentration) of the compound was obtained using the following non-linear fitting formula: Data analysis was performed using Graphpad 6.0 software. Y=Bottom+(Top−Bottom)/(1+10^((Log IC50−X)*Hill Slope)) • X: compound concentration log value Y: inhibition, % • 5.

Ret V804M = Ret V804M (Homo sapiens (Human), UniProt P07949, V804M); assay: HTRF kinase inhibition assay, Ret V804M; type: biochemical; details: HTRF method
Description: as §1, §2

Chain of Ret wt (P07949 29-1114): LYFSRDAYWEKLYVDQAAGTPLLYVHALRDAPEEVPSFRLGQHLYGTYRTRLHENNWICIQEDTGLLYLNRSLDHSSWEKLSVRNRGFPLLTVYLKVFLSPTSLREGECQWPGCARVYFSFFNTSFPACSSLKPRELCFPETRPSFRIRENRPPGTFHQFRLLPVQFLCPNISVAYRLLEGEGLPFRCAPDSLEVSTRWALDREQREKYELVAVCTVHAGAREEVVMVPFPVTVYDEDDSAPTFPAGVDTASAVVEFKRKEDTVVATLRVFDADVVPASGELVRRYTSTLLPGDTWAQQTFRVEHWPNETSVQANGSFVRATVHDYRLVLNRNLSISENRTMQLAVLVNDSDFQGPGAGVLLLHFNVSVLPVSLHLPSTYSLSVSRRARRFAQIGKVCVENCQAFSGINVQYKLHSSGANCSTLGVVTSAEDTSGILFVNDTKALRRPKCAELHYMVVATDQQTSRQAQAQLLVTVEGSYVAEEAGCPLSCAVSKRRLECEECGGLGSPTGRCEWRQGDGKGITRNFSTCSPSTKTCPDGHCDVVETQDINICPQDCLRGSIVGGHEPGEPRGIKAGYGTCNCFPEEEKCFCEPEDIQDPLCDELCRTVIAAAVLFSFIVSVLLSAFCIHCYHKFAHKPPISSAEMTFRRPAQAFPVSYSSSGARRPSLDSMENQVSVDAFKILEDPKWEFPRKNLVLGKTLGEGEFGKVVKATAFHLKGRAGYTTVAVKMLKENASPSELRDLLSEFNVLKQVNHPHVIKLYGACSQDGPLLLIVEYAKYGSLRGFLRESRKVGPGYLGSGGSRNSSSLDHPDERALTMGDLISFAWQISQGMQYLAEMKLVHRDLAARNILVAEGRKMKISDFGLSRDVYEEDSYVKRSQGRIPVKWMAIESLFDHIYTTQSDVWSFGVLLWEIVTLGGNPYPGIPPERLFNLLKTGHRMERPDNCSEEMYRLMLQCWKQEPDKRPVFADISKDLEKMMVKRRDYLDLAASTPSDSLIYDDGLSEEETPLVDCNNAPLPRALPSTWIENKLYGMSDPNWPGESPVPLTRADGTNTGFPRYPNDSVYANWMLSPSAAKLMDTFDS
Chain of Ret V804M (P07949 29-1114 V804M): as the sequence (P07949 29-1114) above, with V776M counted along it

Structure (SMILES)	IC50 (Ret wt) [nM]	IC50 (Ret V804M) [nM]
Cn1cc(-c2cc(-c3ccc(N4CC5CC(C4)N5C(=O)C#Cc4ccccc4)nc3)c3c(C#N)cnn3c2)cn1 [Example 271, 6-(1-methyl-1H-pyrazol-4-yl)-4-(6-(6-(3-phenylpropioloyl)-3,6-diazabicyclo[3.1.1]heptane-3-yl)pyridin-3-yl)pyrazolo[1,5-a]pyridine-3-carbonitrile]	5.82	74.1
C#Cc1ccc(CN2CCN(c3ccc(-c4cc(-c5cnn(C)c5)cn5ncc(C#N)c45)cn3)CC2)nc1 [Example 225]	0.39	2.22
Cn1cc(-c2cc(-c3ccc(N4CC5CC(C4)N5CC#Cc4cncc(F)c4)nc3)c3c(C#N)cnn3c2)cn1 [Example 259, 4-(6-(6-(3-(5-fluoropyridin-3-yl)prop-2-yn-1-yl)-3,6-diazabicyclo[3.1.1]heptane-3-yl)pyridin-3-yl)-6-(1-methyl-1H-pyrazol-4-yl)pyrazolo[1,5-a]pyridin-3-carbonitrile]	0.16	0.91
C#Cc1cccc(CN2C3CC2CN(c2ccc(-c4cc(-c5cnn(C)c5)cn5ncc(C#N)c45)cn2)C3)n1 [Example 221, 4-(6-(6-((6-ethynylpyridin-2-yl)methyl)-3,6-diazabicyclo[3.1.1]hept-3-yl)pyridin-3-yl)-6-(1-methyl-1H-pyrazol-4-yl)pyrazolo[1,5-a]pyridine-3-carbonitrile]	0.55	12.4
C#CC(=O)N1C2CC1CN(c1ccc(-c3cc(-c4cnn(C)c4)cn4ncc(C#N)c34)cn1)C2 [Example 31, 6-(1-methyl-1H-pyrazol-4-yl)-4-(6-(6-propioloyl-3,6-diazabicyclo[3.1.1]heptan-3-yl)pyridin-3-yl)pyrazolo[1,5-a]pyridine-3-carbonitrile]	1.95	44.3
Cn1cc(-c2cc(-c3ccc(N4CC5CC(C4)N5CC#Cc4cccnc4)nc3)c3c(C#N)cnn3c2)cn1 [Example 249, 6-(1-methylpyrazol-4-yl)-4-[6-[6-[3-(3-pyridyl)prop-2-ynyl]-3,6-diazabicyclo[3.1.1]heptan-3-yl]-3-pyridyl]pyrazolo[1,5-a]pyridine-3-carbonitrile]	0.39	1.77
C#CCNC1(C)CCN(c2ccc(-c3cc(-c4cnn(C)c4)cn4ncc(C#N)c34)cn2)CC1 [Example 277, 6-(1-methyl-1H-pyrazol-4-yl)-4-(6-(4-methyl-4-(prop-2-yn-1-ylamino)piperidin-1-yl)pyridin-3-yl)pyrazolo[1,5-a]pyridine-3-carbonitrile]	1.38	10.3
Cn1cc(-c2cc(-c3ccc(N4CC5CC(C4)N5CC#Cc4ccncc4)nc3)c3c(C#N)cnn3c2)cn1 [Example 245, 6-(1-methyl-1H-pyrazol-4-yl)-4-(6-(6-(3-(pyridin-4-yl)propan-2-yn-1-yl)-3,6-diazabicyclo[3.1.1]heptan-3-yl)pyridin-3-yl)pyrazole[1,5-a]pyridine-3-carbonitrile]	0.65	10.7
C#Cc1ccc(C(=O)N2C3CC2CN(c2ccc(-c4cc(-c5cnn(C)c5)cn5ncc(C#N)c45)cn2)C3)cc1F [Example 232, 4-(6-(6-(4-ethynyl-3-fluorobenzoyl)-3,6-diazabicyclo[3.1.1]heptan-3-yl)pyridin-3-yl)-6-(1-methyl-1H-pyrazol-4-yl)pyrazolo[1,5-a]pyridine-3-carbonitrile]	0.37	1.79
COc1cncc(C#CC(=O)N2C3CC2CN(c2ccc(-c4cc(-c5cnn(C)c5)cn5ncc(C#N)c45)cn2)C3)c1 [Example 270, 4-(6-(6-(3-(5-methoxypyridin-3-yl)propioloyl)-3,6-diazabicyclo[3.1.1]heptan-3-yl)pyridin-3-yl)-6-(1-methyl-1H-pyrazol-4-yl)pyrazolo[1,5-a]pyridine-3-carbonitrile]	1.1	4.9
Cn1cc(-c2cc(-c3ccc(N4CC5CC(C4)N5CC#Cc4ccc(F)nc4)nc3)c3c(C#N)cnn3c2)cn1 [Example 262, 4-[6-[6-[3-(6-fluoro-3-pyridyl)prop-2-ynyl]-3,6-diazabicyclo[3.1.1]heptan-3-yl]3-pyridyl]-6-(1-methylpyrazol-4-yl)pyrazolo[1,5-a]pyridine-3-carbonitrile]	0.2	1.92
C#Cc1ccc(O[C@@H]2CCN(c3ccc(-c4cc(-c5cnn(C(F)F)c5)cn5ncc(C#N)c45)cn3)C2)cc1 [Example 286, (R)-6-(1-(difluoromethyl)-1H-pyrazol-4-yl)-4-(6-(3-(4-ethynylphenoxy)pyrrolidin-1-yl)pyridin-3-yl)pyrazolo[1,5-a]pyridine-3-carbonitrile]	0.85	0.85
C#Cc1ccc(OC2CN(c3ccc(-c4cc(-c5cnn(C)c5)cn5ncc(C#N)c45)cn3)C2)cn1 [Example 287, 4-(6-(3-((6-ethynylpyridin-3-yl)oxy)azetidin-1-yl)pyridin-3-yl)-6-(1-methyl-1H-pyrazol-4-yl) pyrazolo[1,5-a]pyridine-3-carbonitrile]	0.13	0.2
Cn1cc(-c2cc(-c3ccc(N4CCN(CC#Cc5cccnc5)CC4)nc3)c3c(C#N)cnn3c2)cn1 [Example 248, 6-(1-methylpyrazol-4-yl)-4-[6-[4-[3-(3-pyridyl)prop-2-ynyl]piperazin-1-yl]-3-pyridyl]pyrazolo[1,5-a]pyridine-3-carbonitrile]	0.58	5.76
Cn1cc(-c2cc(-c3ccc(N4CC5CC(C4)N5CC#Cc4ccccc4)nc3)c3c(C#N)cnn3c2)cn1 [Example 250, 6-(1-methyl-1H-pyrazol-4-yl)-4-(6-(6-(3-phenylprop-2-yn-1-yl)-3,6-diazabicyclo[3.1.1]heptanpyridin-3-yl)pyridin-3-yl)pyrazolo[1,5-a]pyridine-3-carbonitrile]	0.14	0.88
COc1ccc(C#CCN2CCN(c3ccc(-c4cc(-c5cnn(C)c5)cn5ncc(C#N)c45)cn3)CC2)cc1 [Example 251, 4-(6-(4-(3-(4-methoxyphenyl)prop-2-yn-1-yl)piperazin-1-yl)pyridin-3-yl)-6-(1-methyl-1H-pyrazolpyridin-4-yl)pyrazolo[1,5-a]pyridine-3-carbonitrile]	2.41	27.9
Cn1cc(-c2cc(-c3ccc(N4CCN(CC#Cc5cccnc5F)CC4)nc3)c3c(C#N)cnn3c2)cn1 [Example 255, 4-[6-[4-[3-(2-fluoro-3-pyridyl)prop-2-ynyl]piperazin-1-yl]-3-pyridyl]-6-(1-methylpyrazol-4-yl)pyrazolo[1,5-a]pyridine-3-carbonitrile]	0.57	4.11
C#Cc1ccc(OC2CN(c3ccc(-c4cc(-c5c(C)noc5C)cn5ncc(C#N)c45)cn3)C2)cn1 [Example 282, 6-(3,5-dimethylisoxazol-4-yl)-4-(6-(3-((6-ethynylpyridin-3-yl)oxy)azetidin-1-yl)pyridin-3-yl)pyrazolo[1,5-a]pyridine-3-carbonitrile]	2.9	60.8
Cn1cc(-c2cc(-c3ccc(N4CCN(CC#Cc5ccc(F)nc5)CC4)nc3)c3c(C#N)cnn3c2)cn1 [Example 261, 4-[6-[4-[3-(6-fluoro-3-pyridyl)prop-2-ynyl]piperazin-1-yl]-3-pyridyl]-6-(1-methylpyrazol-4-yl)pyrazolo[1,5-a]pyridine-3-carbonitrile]	3.1	5.1
Cn1cc(-c2cc(-c3ccc(N4CC5CC(C4)N5CC#Cc4ncccc4F)nc3)c3c(C#N)cnn3c2)cn1 [Example 258, 4-(6-(6-(3-(3-fluoropyridin-2-yl)prop-2-yn-1-yl)-3,6-diazabicyclo[3.1.1]heptane-3-yl)pyridin-3-yl)-6-(1-methyl-1H-pyrazol-4-yl)pyrazoline[1,5-a]pyridin-3-carbonitrile]	0.15	0.21
C#Cc1cc(F)c(C(=O)N2C3CC2CN(c2ccc(-c4cc(-c5cnn(C)c5)cn5ncc(C#N)c45)cn2)C3)c(F)c1 [Example 235]	0.4	10
Cn1cc(-c2cc(-c3ccc(N4CC5CC(C4)N5C(=O)C#Cc4cccnc4)nc3)c3c(C#N)cnn3c2)cn1 [Example 273, 6-(1-methyl-1H-pyrazol-4-yl)-4-(6-(6-(3-(pyridin-3-yl)propioloyl]-3,6-diazabicyclo[3.1.1]heptan-3-yl]-3-pyridin]pyrazolo[1,5-a]pyridine-3-carbonitrile]	4.28	82.6
Cn1cc(-c2cc(-c3ccc(N4CCN(CC#Cc5cncc(C(F)(F)F)c5)CC4)nc3)c3c(C#N)cnn3c2)cn1 [Example 265]	3.65	69.6
Cn1cc(-c2cc(-c3ccc(N4CCN(CC#Cc5ccc(C(F)(F)F)cc5)CC4)nc3)c3c(C#N)cnn3c2)cn1 [Example 246, 6-(1-methyl-1H-pyrazol-4-yl)-4-(6-(4-(3-(4-(trifluoromethyl)phenyl)prop-2-yn-1-yl)piperazine-1-yl)pyridin-3-yl)pyrazolo[1,5-a]pyridine-3-carbonitrile]	7.06	198
C#Cc1ccc(OC2CN(c3ccc(-c4cc(-c5cnn(C6CC6)c5)cn5ncc(C#N)c45)cn3)C2)cn1 [Example 280, 6-(1-cyclopropyl-1H-pyrazol-4-yl)-4-(6-(3-((6-ethynylpyridin-3-yl)oxy)azetidin-1-yl)pyridin-3-yl)pyrazolo[1,5-a]pyridine-3-carbonitrile]	0.43	0.92
C#Cc1ccc(C(=O)N2CCN(c3ccc(-c4cc(-c5cnn(C)c5)cn5ncc(C#N)c45)cn3)CC2)nc1 [Example 237, 4-(6-(4-(5-ethynylpicolinoyl)piperazin-1-yl)pyridin-3-yl)-6-(1-methyl-1H-pyrazol-4-yl)pyrazolo[1,5-a]pyridine-3-carbonitrile]	0.39	2.06
